Experiments:
[1] = Inhibition of HIV reverse transcriptase; parameters: species or system Human immunodeficiency virus
Protease = Protease (Human immunodeficiency virus 1, UniProt Q9YQ12); assay: Inhibition of HIV1 protease
[2] = Inhibition of HIV protease; parameters: species or system Human immunodeficiency virus

Sequence of Protease (Q9YQ12 whole entry): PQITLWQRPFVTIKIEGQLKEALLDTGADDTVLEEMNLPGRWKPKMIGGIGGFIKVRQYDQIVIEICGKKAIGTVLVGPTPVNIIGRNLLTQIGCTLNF

Row | SMILES | IC50 [1] [nM] | also measured
1 | Cc1cc(C)c(-n2nnnc2SCC(=O)Nc2ccccc2Cl)c(C)c1 | 5 | –
2 | CCOC(=O)Cc1nnc(NC(=O)[C@@H](CC)Sc2nnnn2-c2ccccc2)s1 | 50 | –
3 | C=CCn1c(CSc2nc3ccccc3s2)nnc1SCC(=O)NCc1cccnc1 | < 100000 | –
4 | Cc1c(O)cccc1C(=O)N[C@@H](Cc1ccccc1)[C@H](O)CN(CC(C)C)S(=O)(=O)c1ccc2ncsc2c1 | – | IC50 (Protease): < 10 nM
5 | CC(C)(C)OC(=O)N[C@@H](Cc1ccccc1)[C@@H](O)[C@@]1(Cc2ccccc2)NC=C([C@H]2c3ccccc3C[C@@H]2O)C1=O | – | IC50 [2]: 12 nM
6 | CC(C)n1nc(COC(N)=O)c(Cc2ccncc2)c1Sc1cc(Cl)cc(Br)c1 | 32 | –
